In PubChem BioAssay (NCI):
“And” between values parts separate entries of the source, which are not always exact repeats. Equal entries are not always repeated.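 Step 1: Grow cells in 96-well plates. Step 2: Expose to compound for 48 hours at 5 concentrations. Step 3: Interpolate endpoints linearly; if unreached, use highest concentration. The concentration for 50% growth inhibition is given as GI50. TGI denotes the concentration required for complete inhibition of growth.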 Where a SMILES comes first, the peptide text is derived from it. [ ]: non-standard residue; d: D form. The star is where a group is joined. ξ: configuration not given here. ξPhe(4-NO2) = NC(Cc1ccc([N+](=O)[O-])cc1)C(=O)O; Boc = CC(C)(C)OC(=O)*; OBn = c1ccc(CO*)cc1

Experiments:
Experiment in all cases: inhibition of tumour cell growth, NCI panel, 48 h
[1] = test system: M14 melanoma
[2] = test system: HCT-15 colon
[3] = test system: OVCAR-4 ovarian
[4] = test system: A498 renal
[5] = test system: MOLT-4 leukemia
[6] = test system: HS 578T breast

| SMILES | TGI [1] | TGI [2] | TGI [3] | TGI [4] | TGI [5] | TGI [6] | GI50 [2] | GI50 [4] |
| --- | --- | --- | --- | --- | --- | --- | --- | --- |
| O=C1Nc2ccccc2[C@]12C[C@H]2c1ccccn1 | > 100 µM | > 100 µM | > 100 µM | > 100 µM | > 100 µM |  |  |  |
| OCCSCc1cc2c(O)c(c1)Cc1cc(CSCCO)cc(c1O)Cc1cc(CSCCO)cc(c1O)Cc1cc(CSCCO)cc(c1O)C2 | 12.7 µM | 33 µM | 13.9 µM | 17.3 µM | > 100 µM | 42.8 µM |  |  |
| CC1=NN2C(=O)CC(=O)N=C2S1 | > 100 µM | > 100 µM | > 100 µM |  | > 100 µM | > 100 µM |  |  |
| NC1=CC(C(=O)c2ccncc2)c2nc3ccccc3nc21 (stereo not given) | > 100 µM | > 100 µM | > 100 µM | > 100 µM | > 100 µM | > 100 µM |  |  |
| COc1ccc2c(c1)N(C(C)=O)CN1C(=O)CCC21 (stereo not given) | > 100 µM | > 100 µM | > 100 µM | > 100 µM | > 100 µM | > 100 µM |  |  |
| CO/C(=N\N=C\c1ccc(OC)cc1OC)c1ccncc1 |  | > 10 µM |  | > 10 µM | > 10 µM |  |  |  |
| CN(C)CCOC1(Cc2ccc(Cl)cc2Cl)CCC(C(C)(C)C)CC1 (stereo not given) | 3.25 µM and 3.11 µM | 3.44 µM and 3.06 µM | 3.87 µM and 3.85 µM | 5.18 µM and 3.95 µM | 4.72 µM and 4.23 µM | 5.2 µM and 5.27 µM | 1.57 µM | 2.07 µM |
| CC1=CC2(O)OC3(CC2=C(C)C)C(C)CCC13 (stereo not given) | > 100 µM | > 100 µM | > 100 µM | > 100 µM | > 100 µM | > 100 µM |  |  |
| CCCCCC(=O)OCC(=O)[C@H]1[C@H](C)C[C@H]2[C@@H]3C[C@H](F)C4=C/C(=N/OC(=O)c5cccc6c(=O)c7ccccc7[nH]c56)C=C[C@]4(C)[C@H]3[C@@H](O)C[C@@]21C | 77.9 µM | > 100 µM | > 100 µM |  | > 100 µM | > 100 µM |  |  |
| c1ccc2[nH]c3[nH]c4[nH]c5ccccc5[nH]c4[nH]c3[nH]c2c1 | > 100 µM | > 100 µM |  | > 100 µM | > 100 µM | > 100 µM |  |  |
| Cc1[nH]n(-c2nc3c(c(=O)[nH]2)CCC3)c(=O)c1CCO | > 100 µM | > 100 µM | > 100 µM | > 100 µM | > 100 µM | > 100 µM |  |  |
| CN1CC2=C(NC(=S)NC2c2ccc(Cl)cc2)/C(=C/c2ccc(Cl)cc2)C1 (stereo not given) | 33.6 µM | 37.5 µM |  |  | 30.2 µM | 40.3 µM |  |  |
| N#CC1=C(C#N)/C(=C(\C#N)C(C#N)C#N)N=C1N | 34.3 µM | 64.3 µM | > 100 µM | 65.4 µM | 64.4 µM | > 100 µM |  |  |
| C=C(C)[C@@H]1CC[C@@H](C)[C@](O)([C@@H]2C[C@@H]([C@H](COC(=O)c3ccccc3)OC(=O)c3ccccc3)OC2=O)C1 | > 100 µM | > 100 µM | > 100 µM | > 100 µM | > 100 µM |  |  |  |
| CC(C)(C)OC(=O)NC(Cc1ccc([N+](=O)[O-])cc1)C(=O)NCC(=O)OCc1ccccc1 (stereo not given) (Boc-[ξPhe(4-NO2)]-Gly-OBn) | 37.6 µM | 41.9 µM | > 100 µM | > 100 µM | 48.1 µM | 54 µM |  |  |
| Cn1cnc2c(OCC3CCCCC3)nc(N)nc21 | > 100 µM | > 100 µM | > 100 µM |  | > 100 µM | > 100 µM |  |  |
| CCCCSC1=N/C(=C\c2ccco2)C(=O)N1 | > 100 µM | > 100 µM | > 100 µM | > 100 µM | > 100 µM | 88.3 µM |  |  |
| C[C@@H]1C[C@@H](O)[C@@]2(O)C13CC(=O)OC(C3)[C@@H](C)[C@@]2(C)CO (stereo not given in full) | > 100 µM | > 100 µM | > 100 µM | > 100 µM | > 100 µM | > 100 µM |  |  |
| C=CCNC(=O)/C(Cc1cc(Br)c(OC)c(Br)c1O)=N\O | 23.6 µM | 21.7 µM | 84.6 µM | 46.7 µM | > 100 µM | 4.23 µM |  |  |
| O=c1oc2ccccc2cc1-c1nnc(-c2ccccc2)s1 | > 100 µM | > 100 µM | > 100 µM | 43.6 µM | > 100 µM | > 100 µM |  |  |
| CC(=O)OCC1OC(n2c3c(c(-c4ccc(Cl)cc4)c(C#N)c2=S)C(=O)CC(C)(C)C3)C(OC(C)=O)C(OC(C)=O)C1OC(C)=O (stereo not given) | > 100 µM | 53.2 µM | > 100 µM | 87.9 µM | > 100 µM | 62.4 µM |  |  |
| CN(C)c1ccc(/C=C2\N=C(N/N=C/c3ccccc3)NC2=O)cc1 | > 100 µM | > 100 µM | > 100 µM | > 100 µM | > 100 µM | > 100 µM |  |  |
| CC(=O)O[C@H]1C(=O)[C@@]2(C)[C@H]([C@H](OC(=O)c3ccc([N+](=O)[O-])cc3)[C@]3(O)C[C@H](OC(=O)[C@H](O)[C@@H](NC(=O)c4ccccc4)c4ccccc4)C(C)=C1C3(C)C)[C@]1(OC(C)=O)CO[C@@H]1C[C@@H]2O | > 25 µM | > 25 µM | > 25 µM | > 25 µM | > 25 µM | > 25 µM |  |  |
| COc1ccc(C2CC(=O)Oc3ccccc3O2)cc1 (stereo not given) |  | > 100 µM | > 100 µM |  | > 100 µM | > 100 µM |  |  |
| COc1cccc(-c2cccc(SC)n2)n1 | > 100 µM | > 100 µM | > 100 µM |  | > 100 µM |  |  |  |
| Cc1cnc2[nH]c(-c3ccc(F)cc3)cc(=O)c2c1 | > 100 µM | > 100 µM | > 100 µM | 81.3 µM | > 91.5 µM | > 100 µM |  |  |
| O=C1SC(c2ccc(Cl)cc2)(c2ccc(Cl)cc2)c2ccccc21 | > 100 µM | > 100 µM | > 100 µM | > 100 µM | > 100 µM | > 100 µM |  |  |
| CCOc1ccc(N/C(=C(/C(Cl)=C(/Cl)NCCO)[N+](=O)[O-])n2nnc3ccccc32)cc1 | > 100 µM | 43.3 µM | > 100 µM | > 100 µM | > 100 µM | 38.8 µM |  |  |
| C[C@]12CC(c3ccccc3O1)C(C#N)C(=O)N2 (stereo not given in full) | > 100 µM | > 100 µM | > 100 µM | > 100 µM | > 100 µM | > 100 µM |  |  |
| Nc1nc(N)nc(-c2cnccn2)n1 | > 100 µM | > 100 µM |  | > 100 µM | > 100 µM |  |  |  |
